Measured values as given in PubChem BioAssay (NCI).
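48-hour exposure; five concentrations; linearly interpolated endpoints. Here, GI50 denotes the concentration required for 50% inhibition of growth. TGI denotes the concentration required for complete inhibition of growth.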

Experiments:
Test in all cases: NCI tumour cell line growth inhibition, 48 h
[1] = system: UACC-257 melanoma
[2] = system: HT29 colon
[3] = system: OVCAR-5 ovarian
[4] = system: LOX IMVI melanoma
[5] = system: A549 NSCLC
[6] = system: OVCAR-3 ovarian
[7] = system: SNB-19 CNS
[8] = system: NCI/ADR-RES ovarian
[9] = system: SK-OV-3 ovarian
[10] = system: HL-60(TB) leukemia
[11] = system: EKVX NSCLC
[12] = system: NCI-H522 lung
[13] = system: SR leukemia
[14] = system: CAKI-1 renal
[15] = system: A498 renal
[16] = system: ACHN renal
[17] = system: RPMI-8226 leukemia
[18] = system: UACC-62 melanoma
[19] = system: IGROV1 ovarian
[20] = system: MDA-MB-435
[21] = system: SK-MEL-5 melanoma
[22] = system: KM12 colon
[23] = system: HS 578T breast
[24] = system: UO-31 renal
[25] = system: MDA-MB-231 breast
[26] = system: MALME-3M melanoma
[27] = system: DU-145 prostate
[28] = system: MCF7 breast
[29] = system: SF-268 CNS
[30] = system: SK-MEL-2 melanoma
[31] = system: RXF 393 renal
[32] = system: SNB-75 CNS
[33] = system: HOP-92 NSCLC
[34] = system: MOLT-4 leukemia
[35] = system: CCRF-CEM leukemia
[36] = system: SW-620 colon
[37] = system: HOP-62 NSCLC
[38] = system: SK-MEL-28 melanoma
[39] = system: NCI-H460 lung
[40] = system: TK-10 renal
[41] = system: HCT-116 colon
[42] = system: COLO 205 colon
[43] = system: NCI-H226 lung
[44] = system: K-562 leukemia
[45] = system: SN12C renal
[46] = system: HCC-2998 colon
[47] = system: BT-549 breast
[48] = system: 786-0 renal
[49] = system: U251 CNS
[50] = system: HCT-15 colon
[51] = system: SF-539 CNS
[52] = system: OVCAR-4 ovarian
[53] = system: PC-3 prostate
[54] = system: OVCAR-8 ovarian
[55] = system: T-47D breast
[56] = system: NCI-H23 lung
[57] = system: SF-295 CNS

With COc1ccccc1C#Cc1ccccc1C#CCCCCO the GI50 [1] was 20.6 µM, the TGI [1] was 38.8 µM and the GI50 [2] was 8.58 µM. For the same compound, the TGI [2] was 29 µM, the GI50 [3] was 16.8 µM and the TGI [3] was 34.1 µM. It also gave a GI50 [4] of 17.9 µM, a TGI [4] of 36 µM and a GI50 [5] of 16.3 µM. It also gave a TGI [5] of 36.5 µM, a GI50 [6] of 19.8 µM and a TGI [6] of 47.2 µM. It also gave a GI50 [7] of 16.7 µM, a TGI [7] of 32.8 µM and a GI50 [8] of 21.9 µM. It also gave a TGI [8] of 47.4 µM, a GI50 [9] of 17.9 µM and a TGI [9] of 40.7 µM. The GI50 [10] was 50.8 µM, the TGI [10] was greater than 100 µM and the GI50 [11] was 15.9 µM. It also gave a TGI [11] of 34.4 µM, a GI50 [12] of 16.3 µM and a TGI [12] of 33.8 µM. For the same compound, the GI50 [13] was 1.01 µM, the TGI [13] was 64.4 µM and the GI50 [14] was 19.7 µM. It also gave a TGI [14] of 42.7 µM, a GI50 [15] of 13.3 µM and a TGI [15] of 27.9 µM. For the same compound, the GI50 [16] was 19.4 µM, the TGI [16] was 38.6 µM and the GI50 [17] was 20 µM. The TGI [17] was greater than 100 µM, the GI50 [18] was 16 µM and the TGI [18] was 30.7 µM. For the same compound, the GI50 [19] was 15.3 µM, the TGI [19] was 32.2 µM and the GI50 [20] was 20.2 µM. It also gave a TGI [20] of 41.8 µM, a GI50 [21] of 14.1 µM and a TGI [21] of 29.5 µM. For the same compound, the GI50 [22] was 23.1 µM, the TGI [22] was 57.8 µM and the GI50 [23] was 17 µM. For the same compound, the TGI [23] was 55.4 µM, the GI50 [24] was 16.8 µM and the TGI [24] was 32.8 µM. The GI50 [25] was 12.4 µM, the TGI [25] was 27.1 µM and the GI50 [26] was 22.4 µM. For the same compound, the TGI [26] was 65.6 µM, the GI50 [27] was 14.3 µM and the TGI [27] was 29.5 µM. The GI50 [28] was 31.7 µM, the TGI [28] was greater than 100 µM and the GI50 [29] was 18 µM. It also gave a TGI [29] of 45.2 µM, a GI50 [30] of 20.1 µM and a TGI [30] of 41.6 µM. It also gave a GI50 [31] of 13.8 µM, a TGI [31] of 29.8 µM and a GI50 [32] of 12 µM. It also gave a TGI [32] of 26.2 µM, a GI50 [33] of 13.7 µM and a TGI [33] of 31.1 µM. For the same compound, the GI50 [34] was 19.6 µM, the TGI [34] was 96 µM and the GI50 [35] was 16.3 µM. The TGI [35] was 85.6 µM, the GI50 [36] was 19.2 µM and the TGI [36] was 46.4 µM. For the same compound, the GI50 [37] was 14.6 µM, the TGI [37] was greater than 100 µM and the GI50 [38] was 16.8 µM. For the same compound, the TGI [38] was 33.4 µM, the GI50 [39] was 15.5 µM and the TGI [39] was 34.2 µM. It also gave a GI50 [40] of 34.5 µM, a TGI [40] greater than 100 µM and a GI50 [41] of 16 µM. It also gave a TGI [41] of 36.3 µM, a GI50 [42] of 18.3 µM and a TGI [42] of 37.7 µM. For the same compound, the GI50 [43] was 21.4 µM, the TGI [43] was 49.2 µM and the GI50 [44] was 15.5 µM. For the same compound, the TGI [44] was greater than 100 µM, the GI50 [45] was 17.5 µM and the TGI [45] was 34.5 µM. For the same compound, the GI50 [46] was 17.9 µM, the TGI [46] was 35.4 µM and the GI50 [47] was 15.5 µM. It also gave a TGI [47] of 33.4 µM, a GI50 [48] of 13.6 µM and a TGI [48] of 29.7 µM. It also gave a GI50 [49] of 18.7 µM, a TGI [49] of 37.3 µM and a GI50 [50] of 19.9 µM. The TGI [50] was 48.9 µM, the GI50 [51] was 14.4 µM and the TGI [51] was 29.1 µM. For the same compound, the GI50 [52] was 23.2 µM, the TGI [52] was 63.1 µM and the GI50 [53] was 15.4 µM. It also gave a TGI [53] of 42.2 µM, a GI50 [54] of 22.6 µM and a TGI [54] of 74.9 µM. It also gave a GI50 [55] of 18.5 µM, a TGI [55] of 65.8 µM and a GI50 [56] of 19.1 µM. It also gave a TGI [56] of 37.7 µM, a GI50 [57] of 22.1 µM and a TGI [57] of 45.1 µM.
